These compounds were tested on SFV-Rluc. Settings: Supplementary Table 2, moderately active compounds (25 - 60% remaining), primary screen at 50 µM.
In the case of `Cl.Cl.OCCN1CCN(CCC=C2c3ccccc3Sc3ccc(Cl)cc32)CC1` [PC-050], the “% left (remaining SFV replication)” value is reported as 55.2%.
For `C#CCN(C)[C@H](C)Cc1ccccc1.Cl` [PC-055], the “% left (remaining SFV replication)” value was 57.6%.

Same assay, conditions: primary screening of chemical libraries; compounds tested at 50 µM
`Oc1c(I)cc(Cl)c2cccnc12` [PC-049] was tested, and the “SFV replication % left” value was 71.9%.
For `Cl.Cl.OCCN1CCN(CCC=C2c3ccccc3Sc3ccc(Cl)cc32)CC1` [PC-050], the “SFV replication % left” value was 55.2%.
For `CC(C)NCC(O)c1ccccc1Cl.Cl.O` (stereo not drawn) [PC-051], the “SFV replication % left” value was 63.7%.
In the case of `O=S(=O)(O)NC1CCCCC1` [PC-053], the “SFV replication % left” value is reported as 74.9%.
With `C[C@H](CCC(=O)O)[C@H]1CC[C@H]2[C@@H]3CC[C@@H]4C[C@H](O)CC[C@]4(C)[C@H]3C[C@H](O)[C@]12C` [PC-054] the “SFV replication % left” value was 86.5%.
For `C#CCN(C)[C@H](C)Cc1ccccc1.Cl` [PC-055], the “SFV replication % left” value was 57.0%.
For `Cc1cc(N)c2ccccc2[n+]1CCCCCCCCCC[n+]1c(C)cc(N)c2ccccc21.[Cl-].[Cl-]` [PC-056], the “SFV replication % left” value was 62.5%.
`O=C1CN=C(c2ccccc2F)c2cc(Cl)ccc2N1` [PC-057] was tested, and the “SFV replication % left” value was 68.5%.
With `CN(C)CC[C@@H](c1ccc(Br)cc1)c1ccccn1.O=C(O)/C=C\C(=O)O` [PC-058] the “SFV replication % left” value was 69.6%.
With `CN(C)CC[C@@H](c1ccc(Cl)cc1)c1ccccn1.O=C(O)/C=C\C(=O)O` [PC-059] the “SFV replication % left” value was 68.1%.
`CN1C(=O)CN=C(c2ccccc2)c2cc(Cl)ccc21` [PC-060] was tested, and the “SFV replication % left” value was 73.6%.
For `CC(C)NCC(O)c1ccc(Cl)c(Cl)c1.Cl` (stereo not drawn) [PC-062], the “SFV replication % left” value was 49.6%.
`O=c1oc2ccccc2c(O)c1Cc1c(O)c2ccccc2oc1=O` [PC-063] was tested, and the “SFV replication % left” value was 65.6%.
`CCN(CC)C(C)C(=O)c1ccccc1.Cl` (stereo not drawn) [PC-064] was tested, and the “SFV replication % left” value was 47.1%.
In the case of `C[C@H]1O[C@@H](O[C@H]2[C@@H](O)C[C@H](O[C@H]3[C@@H](O)C[C@H](O[C@H]4CC[C@@]5(C)[C@H](CC[C@@H]6[C@@H]5C[C@@H](O)[C@]5(C)[C@@H](C7=CC(=O)OC7)CC[C@]65O)C4)O[C@@H]3C)O[C@@H]2C)C[C@H](O)[C@@H]1O` [PC-065], the “SFV replication % left” value is reported as 141.9%.
For `O=C1c2c(O)cccc2Cc2cccc(O)c21` [PC-066], the “SFV replication % left” value was 27.2%.
For `CN(C)CCOC(c1ccccc1)c1ccccc1.Cl` [PC-067], the “SFV replication % left” value was 41.0%.
For `O=C1NC(=O)C(c2ccccc2)(c2ccccc2)N1` [PC-068], the “SFV replication % left” value was 66.3%.
In the case of `Cc1c(N(C)CS(=O)(=O)[O-])c(=O)n(-c2ccccc2)n1C.[Na+]` [PC-069], the “SFV replication % left” value is reported as 86.0%.
For `CN(C)CCC=C1c2ccccc2COc2ccccc21.Cl` [PC-070], the “SFV replication % left” value was 21.6%.
With `CCOc1ccc(NC(N)=O)cc1` [PC-071] the “SFV replication % left” value was 103.3%.
`CC[C@H]1CN2CCc3cc(OC)c(OC)cc3[C@@H]2C[C@@H]1C[C@H]1NCCc2cc(OC)c(OC)cc21.Cl.Cl` [PC-072] was tested, and the “SFV replication % left” value was 63.1%.
For `CCN(CC)C(=O)c1ccc(O)c(OC)c1` [PC-073], the “SFV replication % left” value was 85.5%.
`CCN(CC)C(C)CN1c2ccccc2Sc2ccccc21.Cl` (stereo not drawn) [PC-074] was tested, and the “SFV replication % left” value was 20.1%.
With `CCOC(=O)c1ccc(O)cc1` [PC-075] the “SFV replication % left” value was 127.8%.
With `CCC(N)C(O)c1ccc(O)c(O)c1` (stereo not drawn) [PC-076] the “SFV replication % left” value was 126.8%.
In the case of `C#C[C@]1(O)CC[C@H]2[C@@H]3CCc4cc(O)ccc4[C@H]3CC[C@@]21C` [PC-077], the “SFV replication % left” value is reported as 11.7%.
`CCNCC(O)c1cccc(O)c1` (stereo not drawn) [PC-078] was tested, and the “SFV replication % left” value was 116.8%.
For `CC(C(=O)[O-])c1cccc(Oc2ccccc2)c1.CC(C(=O)[O-])c1cccc(Oc2ccccc2)c1.[Ca+2]` (stereo not drawn) [PC-080], the “SFV replication % left” value was 87.6%.
For `Br.CC(Cc1ccc(O)cc1)NCC(O)c1cc(O)cc(O)c1` (stereo not drawn) [PC-081], the “SFV replication % left” value was 106.6%.
With `Cl.Cl.OCCN1CCN(CC/C=C2/c3ccccc3Sc3ccc(C(F)(F)F)cc32)CC1` [PC-082] the “SFV replication % left” value was 92.6%.
`Nc1ccc(Cl)cc1C(=O)c1ccccc1F` [PC-083] was tested, and the “SFV replication % left” value was 167.4%.
`O=C(O)/C=C\C(=O)O.O=C(O)/C=C\C(=O)O.OCCN1CCN(CCCN2c3ccccc3Sc3ccc(C(F)(F)F)cc32)CC1` [PC-084] was tested, and the “SFV replication % left” value was 98.9%.
In the case of `Nc1nc2ncc(CNc3ccc(C(=O)N[C@@H](CCC(=O)O)C(=O)O)cc3)nc2c(=O)[nH]1` [PC-085], the “SFV replication % left” value is reported as 100.0%.
In the case of `COc1ccccc1OCC(O)CO` (stereo not drawn) [PC-086], the “SFV replication % left” value is reported as 124.5%.
With `CN1C(=O)NC(=O)C(C)(C2=CCCCC2)C1=O` (stereo not drawn) [PC-087] the “SFV replication % left” value was 121.3%.
`Oc1ccc(C(O)CNCCCCCCNCC(O)c2ccc(O)c(O)c2)cc1O` (stereo not drawn) [PC-088] was tested, and the “SFV replication % left” value was 124.9%.
For `NCCCS(=O)(=O)O` [PC-090], the “SFV replication % left” value was 118.7%.
For `NS(=O)(=O)c1cc2c(cc1Cl)NCNS2(=O)=O` [PC-091], the “SFV replication % left” value was 121.2%.
In the case of `CC(=O)OCC(=O)[C@@]1(O)CC[C@H]2[C@@H]3CCC4=CC(=O)CC[C@]4(C)[C@H]3[C@@H](O)C[C@@]21C` [PC-092], the “SFV replication % left” value is reported as 116.8%.
With `CCN(CCO)CCCC(C)Nc1ccnc2cc(Cl)ccc12.O=S(=O)(O)O` (stereo not drawn) [PC-093] the “SFV replication % left” value was 128.9%.
For `CNC(C)C(O)c1ccc(O)cc1` (stereo not drawn) [PC-094], the “SFV replication % left” value was 94.4%.
For `CC(CN1c2ccccc2Sc2ccccc21)[N+](C)(C)CCO.[Cl-]` (stereo not drawn) [PC-096], the “SFV replication % left” value was 102.2%.
With `Cl.Cl.OCCOCCN1CCN(C(c2ccccc2)c2ccc(Cl)cc2)CC1` (stereo not drawn) [PC-097] the “SFV replication % left” value was 98.3%.
For `CC(C)Cc1ccc(CC(=O)O)cc1` [PC-098], the “SFV replication % left” value was 102.2%.
In the case of `CC(C)Cc1ccc(C(C)C(=O)O)cc1` (stereo not drawn) [PC-099], the “SFV replication % left” value is reported as 92.8%.
With `O[C@H]1[C@H](O)[C@@H](O)[C@H](O)[C@@H](O)[C@H]1O` [PC-100] the “SFV replication % left” value was 106.0%.
In the case of `CCC(NC(C)C)C(O)c1ccc(O)c(O)c1` (stereo not drawn) [PC-101], the “SFV replication % left” value is reported as 90.7%.
In the case of `CC(C)NCC(O)c1ccc(O)c(O)c1.CC(C)NCC(O)c1ccc(O)c(O)c1.O.O.O=S(=O)(O)O` (stereo not drawn) [PC-102], the “SFV replication % left” value is reported as 110.9%.
For `CC(C)NCC(O)c1ccc(O)c(O)c1.Cl` (stereo not drawn) [PC-103], the “SFV replication % left” value was 112.5%.
For `CC(CCc1ccccc1)NCC(O)c1ccc(O)c(C(N)=O)c1.Cl` (stereo not drawn) [PC-105], the “SFV replication % left” value was 72.5%.
With `O=C1Nc2ccc(Cl)cc2C(c2ccccc2Cl)=NC1O` (stereo not drawn) [PC-106] the “SFV replication % left” value was 98.2%.
With `CN1CCN=C(c2ccccc2)c2cc(Cl)ccc21` [PC-107] the “SFV replication % left” value was 87.5%.
In the case of `Cc1cccc(Nc2ccccc2C(=O)O)c1C` [PC-108], the “SFV replication % left” value is reported as 103.5%.
With `CC1=CC(=O)c2ccccc2C1=O` [PC-109] the “SFV replication % left” value was 28.3%.
For `Cc1ccccc1OCC(O)CO` (stereo not drawn) [PC-110], the “SFV replication % left” value was 79.2%.
In the case of `CNC(C)(C)Cc1ccccc1.CNC(C)(C)Cc1ccccc1.O=S(=O)(O)O` [PC-111], the “SFV replication % left” value is reported as 81.8%.
`Cc1cccc(C)c1NC(=O)C1CCCCN1C.Cl` (stereo not drawn) [PC-112] was tested, and the “SFV replication % left” value was 74.9%.
